ChEMBL document CHEMBL3871265, “The therapeutic journey of pyridazinone” (Eur J Med Chem, 2016)

Assays:
[1] = Antiplatelet activity in human washed platelets assessed as reduction in thrombin-induced platelet aggregation preincubated for 5 mins followed by thrombin induction measured after 5 mins by dual channel aggregometric analysis; assay type: functional, cell-based
Rattus norvegicus [2] = test: Antiinflammatory activity in rat paw edema model; assay type: functional
[3] = Cytotoxicity against human SMMC7721 cells assessed as cell growth inhibition after 72 hrs in presence of 5% CO2 by MTS assay; assay type: functional; conditions: SMMC-7721, 72 h
[4] = Cytotoxicity against human Bel7402 cells assessed as cell growth inhibition after 72 hrs in presence of 5% CO2 by MTS assay; assay type: functional; conditions: Bel-7402, 72 h
[5] = Cytotoxicity against human QGY7703 cells assessed as cell growth inhibition after 72 hrs in presence of 5% CO2 by MTS assay; assay type: functional; conditions: QGY-7703, 72 h
Rattus norvegicus [6] = species: Rattus norvegicus; test: Antiinflammatory activity in rat pyresis model; assay type: functional
[7] = Agonist activity at PGI2 in human platelet-rich plasma assessed as inhibition of ADP-induced platelet aggregation
[8] = Antiinflammatory activity in human HL60 cells assessed as inhibition of LPS-induced IL-1beta production; assay type: functional, cell-based; conditions: HL-60
[9] = Antiplatelet activity in human platelets assessed as reduction in thrombin-induced platelet aggregation by turbidimetric method; assay type: functional, cell-based
[10] = target: Adrenergic receptor alpha-1 (Rattus norvegicus) (UniProt P15823+P23944+P43140); test: Potency index, ratio of compound affinity to prazosin affinity for alpha1-adrenergic receptor in rat cerebral cortex membranes; assay type: cell membranes; conditions: Membrane
[11] = target: T1, Adrenergic receptor alpha-1 (Rattus norvegicus, UniProt P15823+P23944+P43140); test: Displacement of [3H]prazosin from alpha1-adrenergic receptor in rat cerebral cortex membranes; assay type: cell membranes, Membrane
T1 sequence (P15823 whole entry): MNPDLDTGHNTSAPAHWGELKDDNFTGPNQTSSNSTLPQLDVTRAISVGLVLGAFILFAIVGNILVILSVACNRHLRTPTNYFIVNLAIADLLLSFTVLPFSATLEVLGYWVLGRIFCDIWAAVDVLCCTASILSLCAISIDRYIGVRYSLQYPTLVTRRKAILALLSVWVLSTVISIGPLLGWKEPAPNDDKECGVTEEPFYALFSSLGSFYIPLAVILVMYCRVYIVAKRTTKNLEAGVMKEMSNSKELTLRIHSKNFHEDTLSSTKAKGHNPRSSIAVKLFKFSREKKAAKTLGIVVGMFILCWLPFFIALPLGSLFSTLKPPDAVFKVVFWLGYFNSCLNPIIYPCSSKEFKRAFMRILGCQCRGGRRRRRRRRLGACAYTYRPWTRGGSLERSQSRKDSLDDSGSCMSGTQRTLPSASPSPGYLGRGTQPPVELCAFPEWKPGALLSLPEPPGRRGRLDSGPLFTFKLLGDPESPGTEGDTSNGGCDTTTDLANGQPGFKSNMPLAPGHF
T1 sequence (P23944 whole entry): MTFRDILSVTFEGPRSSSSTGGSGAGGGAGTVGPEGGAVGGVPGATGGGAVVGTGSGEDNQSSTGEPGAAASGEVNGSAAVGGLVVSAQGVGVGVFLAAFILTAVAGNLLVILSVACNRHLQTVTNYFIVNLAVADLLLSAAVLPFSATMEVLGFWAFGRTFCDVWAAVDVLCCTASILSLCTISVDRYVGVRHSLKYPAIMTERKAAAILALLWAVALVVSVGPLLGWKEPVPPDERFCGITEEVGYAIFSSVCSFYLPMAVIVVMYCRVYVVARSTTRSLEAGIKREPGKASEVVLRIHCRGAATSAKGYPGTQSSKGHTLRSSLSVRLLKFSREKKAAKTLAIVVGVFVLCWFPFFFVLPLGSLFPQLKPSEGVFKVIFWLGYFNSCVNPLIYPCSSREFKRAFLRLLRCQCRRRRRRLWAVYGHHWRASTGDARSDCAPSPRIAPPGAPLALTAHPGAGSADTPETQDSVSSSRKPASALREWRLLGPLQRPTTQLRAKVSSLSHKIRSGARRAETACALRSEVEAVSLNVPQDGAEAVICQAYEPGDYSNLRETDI
T1 sequence (P43140 whole entry): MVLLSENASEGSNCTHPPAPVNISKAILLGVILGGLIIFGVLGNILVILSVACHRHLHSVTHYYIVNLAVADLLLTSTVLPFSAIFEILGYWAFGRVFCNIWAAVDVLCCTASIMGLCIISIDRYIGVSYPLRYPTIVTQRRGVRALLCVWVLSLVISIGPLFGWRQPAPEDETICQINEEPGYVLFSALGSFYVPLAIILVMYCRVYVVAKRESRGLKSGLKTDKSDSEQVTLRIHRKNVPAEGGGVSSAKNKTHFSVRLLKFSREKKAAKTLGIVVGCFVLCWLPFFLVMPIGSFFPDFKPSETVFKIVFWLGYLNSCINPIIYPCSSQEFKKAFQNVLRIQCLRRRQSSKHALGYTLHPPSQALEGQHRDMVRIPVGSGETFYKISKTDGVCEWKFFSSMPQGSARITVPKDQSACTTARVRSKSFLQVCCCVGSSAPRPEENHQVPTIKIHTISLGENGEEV

[12] = Cytotoxicity against human IMR32 cells assessed as reduction in cell viability after 72 hrs by MTT assay; assay type: functional, cell-based; conditions: IMR-32, 72 h

Compound `O=C(/C=C/c1cc(=O)[nH]nc1-c1ccccc1)c1ccccc1` has an IC50 [1] of 25000 nM.
With `CC(C)Oc1c(-c2ccc(S(C)(=O)=O)cc2)cnn(Cc2ccccc2)c1=O` the ED50 (Rattus norvegicus [2]) was 0.3 mg/kg.
`O=c1ccc(-c2ccc(N3CCOCC3)c(C(F)(F)F)c2)n[nH]1` gave a GI50 [3] of 28.7 nM, a GI50 [4] of 469 nM and a GI50 [5] of 30.2 nM.
With `COC(=O)C(=Cc1cc(=O)[nH]nc1-c1ccccc1)C(=O)OC` the IC50 [1] was 45000 nM.
`CC(C)(C)c1ccc(CSc2c(-c3ccccc3)nn(C(C)(C)C)c(=O)c2F)cc1` gave an IC50 [1] of 15000 nM.
For `C[C@H]1C[C@@H]1Cn1ncc(-c2ccc(S(C)(=O)=O)cc2)c(-c2ccc(F)cc2)c1=O`, the ED50 (Rattus norvegicus [6]) was 1.1 mg/kg.
`COC(=O)/C(=C/c1cc(O)nnc1-c1ccccc1)C(C)=O` gave an IC50 [1] of 25000 nM.
For `O=C(O)COc1cccc2c1CC[C@H](Cn1nc(C(c3ccccc3)c3ccccc3)ccc1=O)C2`, the IC50 [7] was 81 nM.
With `COc1ccc(-c2cc(=O)n(CC/C=C/c3ccccc3)nc2-c2ccc(OC)cc2)cc1` the IC50 [8] was 100 nM.
For `O=C(/C=C/c1cc(=O)[nH]nc1-c1ccccc1)c1ccc(Cl)cc1Cl`, the IC50 [9] was 3440 nM.
`CCOC(=O)C(=Cc1cc(=O)[nH]nc1-c1ccccc1)C(=O)OCC` gave an IC50 [1] of 20000 nM.
For `O=C(c1ccco1)N1CCN(c2cnn(CCCCCCCN3CCN(c4ccccc4Oc4ccccc4)CC3)c(=O)c2Cl)CC1`, the Ratio [10] was 5 and the Ki [11] was 0.052 nM.
Work on `Cc1n[nH]c(=O)c2c1c1cc(F)ccc1n2Cc1cn(C2CCCCC2)nn1` yielded an IC50 [12] of 40 nM.
